Data published in patent US7053043B1, “Pharmaceutical compositions comprising synthetic peptide copolymers and methods for preventing and treating GVHD and HVGD” (Yeda Research and Development Co.Ltd., priority 1999, dated 2006).

Columns and labels:
[1] = test system: proliferation of B10.PL (H-2u) responder cells to BALB/c stimulator cells; assay: Mixed lymphocyte reaction (MLR) across major histocompatibility barriers, B10.PL vs BALB/c; assay type: cell-based, mice; details: 20 μg/well, Cop 1 Batch I, 1:1 ratio of responder to stimulator cells
Protocol: (§1) Responder cells for MLR reactions across major histocompatibility barriers were harvested from spleen of non-immunized mice while responder cells for MLR across minor histocompatibility barriers were harvested from mice which were preimmunized with irradiated (30 Gy) 50×10^6 stimulator spleen cells 21 days before. Responder cells (5×10^5 spleen cells per well) were tested for their proliferative response by plating with different amounts (2.5 to 10×10^5) of irradiated stimulator cells, in presence or absence of various peptide inhibitors (10–100 μg per well). Cultures were set up in 200 μl media containing 10% FCS in flat-bottom microtiter plates. After 4 days of incubation, cultures were pulsed with 1 μCi of [^3H]thymidine for an additional 16 hours. Results are represented as mean counts per minute (cpm) thymidine incorporation from triplicate cultures.
(§2) To investigate the feasibility of inhibition of MLR by Copolymer 1, an MLR system was developed in which Copolymer 1 was tested for its ability to inhibit the proliferation of B10.PL (H-2^u) responder cells to stimulator cells of either the same (PL/J) or different (BALB/c) H-2 haplotype. For comparison, the inhibitory MBP Ac 1-11[4A], MBP 35-47, a combination of Ac 1-1[4A]+MBP 35-47, MBP 89-101 and KM-core peptides, described in Schlegel et al. (1994), were used in the MLR experiments.
(§3) The inhibition obtained by Copolymer 1 was similar (in response to minor histocompatibility antigen) or even higher (in response to major histocompatibility antigen) than the inhibition obtained with the combination of the two synthetic peptides Ac 1-11[4A] and MBP 35-47, which specifically bind to the class II molecules I-A^u and the I-E^u, respectively. The molar efficiency of Copolymer 1 of M.W. 6000 is even higher since the molecular weight of the synthetic peptides is 4–5 fold lower.

[2] = test system: T cell proliferation in MHC-disparate mixed lymphocyte cultures; assay: Mixed lymphocyte cultures across major histocompatibility barriers, six MHC-disparate strain combinations; assay type: cell-based, mice
Protocol: as §1

[3] = test system: B10.D2 responder spleen cells with irradiated C57BL/6 spleen stimulator cells; assay: MLR primary assay, Table 1; assay type: cell-based, mice; details: [3H]-thymidine after 96 hours
Protocol: The effect of Copolymer 1 (Batch I) on mixed lymphocyte cultures across major histocompatibility barriers was tested. T cell proliferation was assessed in six different MHC-disparate strain combinations. […] To exclude the possibility that higher concentrations of Copolymer 1 (50–100 μg/well) might be toxic to the responder cells, responder cells from background well and from wells incubated with 25–100 μg/well of Copolymer 1 in the presence of stimulator cells for 72 hours in a primary assay, were rechallenged in a subsequent secondary assay with IL-2 (5,000 U/well).

[4] = test system: proliferation of B10.PL (H-2u) responder cells to PL/J stimulator cells; assay: Mixed lymphocyte reaction (MLR) across minor histocompatibility barriers; assay type: cell-based, mice; details: 20 μg/well, Cop 1 Batch I, 1:1 ratio of responder to stimulator cells
Protocol: as §1, §2, §3

[5] = test system: function of transplanted thyroids; assay: Thyroid graft assay for HVGD (125I absorption of thyroid transplanted in kidney capsule); assay type: in vivo, mice
Protocol: In this transplantation model for HVGD, thyroid glands from donor mice were transplanted in the kidney's capsules of recipient mice. One week later the transplanted mice were injected with ^125I, and the radioactivity of each kidney (the recipient or the untransplanted kidney) was measured after 20 hours. Δcpm was calculated by subtracting the ^125I absorbance of the untransplanted kidneys from the ^125I absorbance of the recipient kidneys in the same treatment. The mean function index (MFI) for treatment was calculated by dividing the mean Δcpm for the tested (Copolymer 1) treatment by the mean Δcpm for the PBS treatment. P values were obtained by the t test. This assay indicates objectively and quantitatively not only the graft survival, but also the function (iodine absorbance) of the transplanted thyroid tissue (Isakov et al., 1979).
The transplanted mice were treated daily with Copolymer 1 600 μg/day (300 μg ip+300 μg sc) in PBS solution, starting 7 days before transplantation. The first Cop 1 treatment on day −7 was injected sc in ICFA as a depot dose. Control mice were treated daily with PBS alone and PBS with ICFA on day −7 before transplantation.
To test the effect of Copolymer 1 treatment on the function of transplanted thyroids in the B10.D2→BALB/c model, thyroid glands from donors B10.D2 were transplanted in the kidney's capsules of BALB/c mice. After one week the transplanted mice were injected with ^125I, and the radioactivity of each kidney was measured 20 hours later. cpm was calculated by subtracting the ^125I absorbance of the untransplanted kidneys from the ^125I absorbance of the recipient kidneys in the same treatment. The mean function index (MFI) for each treatment was calculated by dividing the mean ^125I absorbance of (transplanted kidney-untransplanted kidney) in the tested treatment by the mean ^125I absorbance of (transplanted kidney-untransplanted kidney) in the PBS treatment, as follows: […]

[6] = B10.D2 → BALB, H-2d, another experiment (N 5), Cop 1 600 μg/day
[7] = B10.D2 → BALB/c, H-2d, Cop 1 600 μg, N 10
[8] = B10PL → PL/J, H-2d, Cop 1 600 μg/day
[9] = C57BL → BALB, H-2b → H-2d, Cop 1 600 μg/day
[10] = C57BL → C3H, H-2b, Cop 1 600 μg/day

Q: How did the “inhibition of MLR” value [1] turn out when Glatiramer acetate [Cop 1] was run?
A: The value was 77%.

Q: And the “inhibitory effect on the MLC” value ([2]; 10–100 μg/well, all concentrations tested)?
A: Its value is “dose-dependent inhibition”.

Q: What about the “concentration sufficient to achieve 50% inhibition of the proliferative responses” value ([2]; Batch I) of the same substance?
A: Its value is 10–25 μg/well.

Q: What about the Maximum inhibition ([2]; all strain combinations tested) of the same substance?
A: The Maximum inhibition was 100%.

Q: And the “Primary Assay cpm” value ([3]; Cop 1 25 μg/well (Batch I))?
A: Its value is 15,953 cpm.

Q: And the “Primary Assay cpm” value ([3]; Cop 1 50 μg/well (Batch I))?
A: The value was 3,663 cpm.

Q: And the “Primary Assay cpm” value ([3]; Cop 1 100 μg/well (Batch I))?
A: Its value is 283 cpm.

Q: And the “inhibition of MLR” value [4]?
A: The value was 63%.

Q: And the “Mean 125I Absorption, Transplanted Kidney (cpm)” value [5, 6]?
A: The value was 1035 cpm.

Q: What about the “Mean 125I Absorption, Untransplanted Kidney (cpm)” value [5, 6] of the same substance?
A: The value was 137 cpm.

Q: And the “cpm (transplanted minus untransplanted kidney)” value [5, 6]?
A: Its value is 898 cpm.

Q: And the “Mean 125I Absorption, Transplanted Kidney (cpm)” value [5, 7]?
A: The value was 2901 cpm.

Q: And the “Mean 125I Absorption, Untransplanted Kidney (cpm)” value [5, 7]?
A: Its value is 450 cpm.

Q: And the “cpm (transplanted minus untransplanted kidney)” value [5, 7]?
A: Its value is 2451 cpm.

Q: And the “Mean 125I Absorption, Transplanted Kidney (cpm)” value [5, 8]?
A: The value was 2009 cpm.

Q: And the “Mean 125I Absorption, Untransplanted Kidney (cpm)” value [5, 8]?
A: Its value is 332 cpm.

Q: And the “cpm (transplanted minus untransplanted kidney)” value [5, 8]?
A: The value was 1677 cpm.

Q: What about the “Mean 125I Absorption, Transplanted Kidney (cpm)” value [5, 9] of the same substance?
A: The value was 10759 cpm.

Q: And the “Mean 125I Absorption, Untransplanted Kidney (cpm)” value [5, 9]?
A: The value was 924 cpm.

Q: What about the “cpm (transplanted minus untransplanted kidney)” value [5, 9] of the same substance?
A: Its value is 9835 cpm.

Q: What about the “Mean 125I Absorption, Transplanted Kidney (cpm)” value [5, 10] of the same substance?
A: Its value is 1643 cpm.

Q: What about the “Mean 125I Absorption, Untransplanted Kidney (cpm)” value [5, 10] of the same substance?
A: Its value is 281 cpm.

Q: And the “cpm (transplanted minus untransplanted kidney)” value [5, 10]?
A: Its value is 1362 cpm.

Q: What about the “MFI (mean function index)” value ([5]; folds over PBS treatment, B10.D2 → BALB, H-2d, another experiment (N 5), Cop 1 600 μg/day) of the same substance?
A: The value was 5.2.

Q: What about the “MFI (mean function index)” value ([5]; folds over PBS treatment, B10.D2 → BALB/c, H-2d, Cop 1 600 μg, N 10) of the same substance?
A: The value was 3.2.

Q: And the “MFI (mean function index)” value ([5]; relative to PBS treatment, B10PL → PL/J, H-2d, Cop 1 600 μg/day)?
A: The value was 2.5.

Q: And the “MFI (mean function index)” value ([5]; relative to PBS treatment, C57BL → BALB, H-2b → H-2d, Cop 1 600 μg/day)?
A: Its value is 3.0.

Q: And the “MFI (mean function index)” value ([5]; relative to PBS treatment, C57BL → C3H, H-2b, Cop 1 600 μg/day)?
A: Its value is 2.3.
